Values after ≈ are worked out from the molar mass of the structure shown. Where two headings read alike, the source gives them in different places.
Experiments:
Type in all cases: cell-based
S. aureus ATCC 29213 = assay: MIC against S. aureus ATCC 29213; settings: Staphylococcus aureus
S. aureus BAA 977 iErmA = assay: MIC against S. aureus BAA 977 iErmA; settings: Staphylococcus aureus, BAA977
[1] = tested on: S. aureus MP-549 msr(a) USA 300; assay: MIC against S. aureus MP-549 msr(a) USA 300; settings: Staphylococcus aureus, USA300, S. aureus MP-549 msr(a) USA 300
[2] = tested on: S. aureus MP-513 clinical cErm; assay: MIC against S. aureus MP-513 clinical cErm; settings: Staphylococcus aureus
K. pneumoniae ATCC 10031 = assay: MIC against K. pneumoniae ATCC 10031; settings: Klebsiella pneumoniae, ATCC10031
E. coli MP-9 ΔTolC = assay: MIC against E. coli MP-9 ΔTolC; settings: Escherichia coli
P. aeruginosa ATCC 27853 = assay: MIC against P. aeruginosa ATCC 27853; settings: Pseudomonas aeruginosa, ATCC27853
E. coli ATCC 25922 = assay: MIC against E. coli ATCC 25922; settings: Escherichia coli, ATCC25922
S. pneumoniae ATCC 49619 = assay: MIC against S. pneumoniae ATCC 49619; settings: Streptococcus pneumoniae, ATCC49619; S. pneumoniae ATCC 49619; read-out: MIC
S. pyogenes ATCC 19615 = assay: MIC against S. pyogenes ATCC 19615; settings: Streptococcus pyogenes, ATCC19615; S. pyogenes ATCC 19615; read-out: MIC
E. faecalis ATCC 29212 = assay: MIC against E. faecalis ATCC 29212; settings: Enterococcus faecalis
[3] = tested on: E. coli MP-74 LptD mutant; assay: MIC against E. coli MP-74 LptD mutant; settings: Escherichia coli
S. aureus MMX 3035 cErmA = assay: MIC against S. aureus MMX 3035 cErmA; settings: Staphylococcus aureus, MMX3035CERMA; S. aureus MMX 3035 cErmA; read-out: MIC
[4] = tested on: S. pneumoniae MMX 3031 cMefA; assay: MIC against S. pneumoniae MMX 3031 cMefA; settings: Streptococcus pneumoniae, MMX3031CMEFA
[5] = tested on: S. pyogenes MMX 946 Macrolide-Resistant; assay: MIC against S. pyogenes MMX 946 Macrolide-Resistant; settings: Streptococcus pyogenes, read-out: MIC
[6] = tested on: E. faecalis MMX 847 Macrolide-Resistant; assay: MIC against E. faecalis MMX 847 Macrolide-Resistant; settings: Enterococcus faecalis, read-out: MIC
H. influenzae ATCC 49247 = assay: MIC against H. influenzae ATCC 49247; settings: Haemophilus influenzae, ATCC49247; H. influenzae ATCC 49247; read-out: MIC
[7] = tested on: S. pneumoniae MMX 3028 cErmB; assay: MIC against S. pneumoniae MMX 3028 cErmB; settings: Streptococcus pneumoniae, MMX3028CERMB; S. pneumoniae MMX 3028 cErmB; read-out: MIC
[8] = ATCC29213, S. aureus ATCC 29213, read-out: MIC
[9] = S. pyogenes MMX 946 Macrolide-Resistant (MacRes)
[10] = E. faecalis MMX 847 Macrolide-Resistant (MacRes)
[11] = E. coli ATCC 25922, read-out: MIC

Structure (SMILES) | MIC (S. aureus ATCC 29213; [8]) [µg/mL] | MIC (S. aureus BAA 977 iErmA) [µg/mL] | MIC [1] [µg/mL] | MIC [2] [µg/mL] | MIC (K. pneumoniae ATCC 10031) [µg/mL] | MIC (E. coli MP-9 ΔTolC) [µg/mL] | MIC (P. aeruginosa ATCC 27853) [µg/mL] | MIC (E. coli ATCC 25922) [µg/mL] | MIC (S. pyogenes ATCC 19615) [µg/mL] | MIC (S. aureus MMX 3035 cErmA) [µg/mL] | MIC [4] [µg/mL] | MIC (H. influenzae ATCC 49247) [µg/mL] | also measured
CCCN1CCO[C@@H]2[C@H](CN[C@@H]2C(=O)N[C@H]([C@H](C)Cl)[C@H]2OC(SC)[C@H](O)[C@H](O)C2O)C1 (stereo partly shown) [FSA-503003] | 4 (≈ 8.3 µM) | 4 (≈ 8.3 µM) | 2 (≈ 4.15 µM) | > 64 | > 64 | > 64 | > 64 | > 64 |  |  |  |  | 
CSC1O[C@H]([C@H](NC(=O)[C@H]2NC[C@@H]3CC(c4ccc(-c5ccccc5)cc4)=CCO[C@H]32)[C@H](C)Cl)C(O)[C@@H](O)[C@H]1O (stereo partly shown) [FSA-510001] | 2 (≈ 3.39 µM) | 2 (≈ 3.39 µM) |  |  | > 64 | > 64 |  | > 64 | 2 (≈ 3.39 µM) |  |  |  | MIC (S. pneumoniae ATCC 49619): 4 µg/mL (≈ 6.79 µM); MIC (E. faecalis ATCC 29212; ATCC29212): 8 µg/mL (≈ 13.6 µM); MIC [3]: 8 µg/mL (≈ 13.6 µM)
CSC1O[C@H]([C@H](NC(=O)[C@H]2NC[C@@H]3C=C(c4cccc(F)c4)CCO[C@@H]23)[C@H](C)Cl)C(O)[C@@H](O)[C@H]1O (stereo partly shown) [FSA-511071] | 2 (≈ 3.77 µM) | 2 (≈ 3.77 µM) | 1 (≈ 1.88 µM) |  |  |  |  |  | 0.5 (≈ 0.942 µM) | > 64 | 0.5 (≈ 0.942 µM) | > 64 | MIC [5, 9]: > 64 µg/mL; MIC (E. faecalis ATCC 29212; ATCC29212, read-out: MIC): 4 µg/mL (≈ 7.53 µM); MIC [6, 10]: > 64 µg/mL; MIC (E. coli ATCC 25922; [11]): > 64 µg/mL
CSC1O[C@H]([C@H](NC(=O)[C@H]2NC[C@@H]3C=C(c4ccccc4F)CCO[C@@H]23)[C@H](C)Cl)C(O)[C@@H](O)[C@H]1O (stereo partly shown) [FSA-511073] | 1 (≈ 1.88 µM) | 1 (≈ 1.88 µM) | 1 (≈ 1.88 µM) |  |  |  |  |  |  | > 64 | 12 (≈ 22.6 µM) | > 64 | MIC [5, 9]: > 64 µg/mL; MIC (E. faecalis ATCC 29212; ATCC29212, read-out: MIC): 4 µg/mL (≈ 7.53 µM); MIC [6, 10]: > 64 µg/mL; MIC (E. coli ATCC 25922; [11]): > 64 µg/mL
CCNC(=O)N1CCO[C@@H]2[C@H](CN[C@@H]2C(=O)N[C@H]([C@H](C)Cl)[C@H]2OC(SC)[C@H](O)[C@H](O)C2O)C1 (stereo partly shown) [FSA-503004] |  | > 64 | > 64 | > 64 | > 64 | > 64 | > 64 | > 64 |  |  |  |  | MIC (S. aureus ATCC 29213; ATCC29213): > 64 µg/mL
CSC1O[C@H]([C@H](NC(=O)[C@H]2NC[C@@H]3CNCCO[C@H]32)[C@H](C)Cl)C(O)[C@@H](O)[C@H]1O (stereo partly shown) [FSA-503001] |  | > 64 | > 64 | > 64 | > 64 | > 64 | > 64 | > 64 |  |  |  |  | 
CSC1O[C@H]([C@H](NC(=O)[C@H]2NC[C@@H]3CN(CC(=O)O)CCO[C@H]32)[C@H](C)Cl)C(O)[C@@H](O)[C@H]1O (stereo partly shown) [FSA-504063] |  |  |  | > 64 | > 64 | > 64 | > 64 | > 64 |  |  |  |  | MIC (S. aureus ATCC 29213; ATCC29213): > 64 µg/mL
CSC1O[C@H]([C@H](NC(=O)[C@H]2NC[C@@H]3C[C@@H](c4ccc(C#N)cc4)CCO[C@H]32)[C@H](C)Cl)C(O)[C@@H](O)[C@H]1O (stereo partly shown) [FSA-512081a] |  | 1 (≈ 1.85 µM) |  |  |  |  |  |  |  |  | ≤ 0.06 |  | 
CSC1O[C@H]([C@H](NC(=O)[C@H]2NC[C@@H]3CN(Cc4ccnc(N)c4)CCO[C@H]32)[C@H](C)Cl)C(O)[C@@H](O)[C@H]1O (stereo partly shown) [FSA-504049] | 14 (≈ 25.6 µM) |  | 8 (≈ 14.6 µM) | > 64 | > 64 | > 64 | > 64 | > 64 |  |  |  |  | 
CSC1O[C@H]([C@H](NC(=O)[C@H]2NC[C@@H]3C[C@@H](CCc4cccc(F)c4)CCO[C@H]32)[C@H](C)Cl)C(O)[C@@H](O)[C@H]1O (stereo partly shown) [FSA-510022] |  |  |  |  |  | 4 (≈ 7.13 µM) |  |  | ≤ 0.06 | 2 (≈ 3.56 µM) | ≤ 0.06 | 1 (≈ 1.78 µM) | MIC (S. pneumoniae ATCC 49619): ≤ 0.06 µg/mL; MIC [7]: 4 µg/mL (≈ 7.13 µM); MIC ([5]; S. pyogenes MMX 946 MacRes): 0.5 µg/mL (≈ 0.891 µM); MIC ([6]; E. faecalis MMX 847 MacRes): 2 µg/mL (≈ 3.56 µM); MIC (K. pneumoniae ATCC 10031; K. pneumoniae ATCC 10031, read-out: MIC): 2 µg/mL (≈ 3.56 µM); MIC [3]: 4 µg/mL (≈ 7.13 µM)

— US20220073554A1, “LINCOSAMIDE ANTIBIOTICS AND USES THEREOF” (President and Fellows of Harvard College, priority 2017, published 2022)
